Results published in patent US7038047B2, “Substituted 6-(2-methoxyphenyl) triazolopyrimides as fungicides” (BASF Aktiengesellschaft, priority 2001, dated 2006).

Columns and labels:
[1] = test system: Cercospora beticola; test: Fungicidal control of leaf spot on beets (Cercospora beticola), protective spray on sugar beet seedlings; assay type: in vivo; conditions: sugar beet seedlings ACH-31, sprayed before inoculation, untreated plants infected to 90%
Experimental: The active compounds, separately or together, were formulated as a 10% emulsion in a mixture of 70% by weight of cyclohexanone, 20% by weight of Nekanil® LN (Lutensol® AP6, wetting agent having emulsifying and dispersant action based on ethoxylated alkylphenols) and 10% by weight of Wettol® EM (nonionic emulsifier based on ethoxylated castor oil) and diluted with water to the desired concentration. Young sugar beet seedlings of the cultivar “ACH-31” were grown in pots to the 2 to 4 leaf stage. These plants were sprayed to runoff with an aqueous suspension, containing the concentration of active ingredient mentioned in the table below, prepared from a stock solution containing 5% of the active ingredient, 94% cyclohexanone and 1% emulsifier (Tween 20). After the plants had dried (3–5 h), they were inoculated with a spore suspension of Cercospora beticola in an aqueous solution of 0.5% gelatine. Then the trial plants were immediately transferred to a humid chamber with 18–23° C. and a relative humidity close to 100% and kept there for 5 days. For a period of further 10–14 days a cultivation in a greenhouse followed at 21–23° C. and a relative humidity about 95%. Then the extent of fungal attack on the leaves was visually assessed as % diseased leaf area.

[2] = test system: cucumber mildew (Sphaerotheca fuliginea); test: Protective action on cucumber mildew, cucumber seedlings; assay type: in vivo; conditions: 250 ppm, inoculated 20 hours after spraying, assessed after 7 days, untreated plants infected to 90%
Source text: The active compounds, separately or together, were formulated as a 10% emulsion in a mixture of 70% by weight of cyclohexanone, 20% by weight of Nekanil® LN (Lutensol® AP6, wetting agent having emulsifying and dispersant action based on ethoxylated alkylphenols) and 10% by weight of Wettol® EM (nonionic emulsifier based on ethoxylated castor oil) and diluted with water to the desired concentration.
Leaves of pot grown cucumber seedlings of the “Chinesische Schlange” variety were sprayed to runoff with aqueous liquors made from a stock solution consisting of 10% of active ingredient, 85% of cyclohexanone, and 5% of emulsifier. 20 hours after the sprays-on layer had dried, the plants were inoculated with a aqueous spore suspension of cucumber mildew (Sphaerotheca fuliginea). The plants were then placed for 7 days in the greenhouse at 20 to 24° C. and a relative humidity of 60 to 80%. The extent of fungus spread was assessed as %-attack of the whole leaf surface.

`COc1cc(F)cc(F)c1-c1c(Cl)nc2ncnn2c1NC(C)C(F)(F)F` (stereo not drawn) [I-38, 5-chloro-6-(4,6-difluoro-2-methoxyphenyl)-7-(1,1,1-trifluoroprop-2-yl)amino-[1,2,4]-triazolo[1,5-α]pyrimidine] was tested, and the “infection (% diseased leaf area)” value ([1]; 50 ppm) was “not more than 7%” and the “infection (% diseased leaf area)” value ([1]; 200 ppm) was “not more than 7%”.
`COc1cc(F)cc(F)c1-c1c(Cl)nc2ncnn2c1NC(C)C(F)(F)F` (stereo not drawn) [I-38B, 5-chloro-6-(4,6-difluoro-2-methoxyphenyl)-7-(1,1,1-trifluoroprop-2-yl)amino-[1,2,4]-triazolo[1,5-α]pyrimidine] was tested, and the “infection (%-attack of the whole leaf surface)” value [2] was “no infection”.
